Experimental data from ChEMBL document CHEMBL1201862, “PubChem BioAssay data set” (2004).
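Results reflect a 48-hour exposure of cells in 96-well plates to compound at five concentrations. GI50 is the concentration that inhibits growth by half.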 Active and inactive are the calls of the source. No stated cut-off is given here; in the data, active = GI50 up to about 1.1 µM and inactive = higher.

Assays:
Experiment in all cases: inhibition of tumour cell growth, NCI panel, 48 h
A549 = test system: A549
ACHN = test system: ACHN
CCRF-CEM = test system: CCRF-CEM
HCT-116 = test system: HCT-116
HOP-92 = test system: HOP-92
K562 = test system: K562
M14 = test system: M14
MOLT-4 = test system: MOLT-4
NCI-H460 = test system: NCI-H460
OVCAR-4 = test system: OVCAR-4
SF-268 = test system: SF-268
SF-295 = test system: SF-295
SK-MEL-28 = test system: SK-MEL-28
SK-MEL-5 = test system: SK-MEL-5
SNB-19 = test system: SNB-19
SW-620 = test system: SW-620
UO-31 = test system: UO-31
HCT-15 = test system: HCT-15

SMILES	GI50 (A549)	GI50 (ACHN)	GI50 (CCRF-CEM)	GI50 (HCT-116)	GI50 (HOP-92)	GI50 (K562)	GI50 (M14)	GI50 (MOLT-4)	GI50 (NCI-H460)	GI50 (OVCAR-4)	GI50 (SF-268)	GI50 (SF-295)	GI50 (SK-MEL-28)	GI50 (SK-MEL-5)	GI50 (SNB-19)	GI50 (SW-620)	GI50 (UO-31)	GI50 (HCT-15) [µM]
O=C1CCCC/C1=C/C=C/c1ccccc1	52.5 µM (inactive)	71.4 µM (inactive)	34.6 µM (inactive)	43.7 µM (inactive)	58.5 µM (inactive)	32.4 µM (inactive)	58.9 µM (inactive)	26.9 µM (inactive)	> 100 µM (inactive)	63.8 µM (inactive)	59.7 µM (inactive)	48.6 µM (inactive)	> 100 µM (inactive)	41.2 µM (inactive)	> 100 µM (inactive)	41.6 µM (inactive)	44.4 µM (inactive)	
CCCCCCCCCCNCCSSCc1ccc(Cl)cc1	1.85 µM (inactive)	4.68 µM (inactive)	1.64 µM (inactive)	1.73 µM (inactive)		1.24 µM (inactive)	0.233 µM (active)	0.439 µM (active)	3.25 µM (inactive)	1.71 µM (inactive)	0.631 µM (active)	1.91 µM (inactive)	0.366 µM (active)	0.509 µM (active)	1.71 µM (inactive)	1.6 µM (inactive)	2.25 µM (inactive)	2.48
C#CC[N+](C)(CC#C)CC#C	> 100 µM (inactive)	> 100 µM (inactive)	> 100 µM (inactive)		> 100 µM (inactive)	> 100 µM (inactive)	> 100 µM (inactive)	> 100 µM (inactive)	> 100 µM (inactive)	> 100 µM (inactive)	> 100 µM (inactive)	> 100 µM (inactive)	> 100 µM (inactive)	> 100 µM (inactive)	> 100 µM (inactive)	> 100 µM (inactive)	> 100 µM (inactive)	> 100
Cc1ccc(C2=C(c3ccccc3)C(O)(c3ccc(C)cc3)C(c3ccccc3)=C2c2ccc(C)cc2)cc1	> 100 µM (inactive)	> 100 µM (inactive)	> 100 µM (inactive)	> 100 µM (inactive)	> 100 µM (inactive)	> 100 µM (inactive)	82 µM (inactive)	> 100 µM (inactive)	> 100 µM (inactive)	> 100 µM (inactive)	> 100 µM (inactive)	> 100 µM (inactive)	> 100 µM (inactive)	> 100 µM (inactive)	> 100 µM (inactive)	> 100 µM (inactive)		> 100
O/N=C1/C(=C/c2ccc(Br)cc2)CCCC1C(NO)c1ccc(Br)cc1 (stereo not given)	15.4 µM (inactive)	17 µM (inactive)	18 µM (inactive)	16.5 µM (inactive)	12.6 µM (inactive)	> 100 µM (inactive)	15.4 µM (inactive)	8.32 µM (inactive)	> 10 µM (inactive)	10.4 µM (inactive)	13.6 µM (inactive)	16.7 µM (inactive)	18.6 µM (inactive)		15.8 µM (inactive)	20.4 µM (inactive)	16 µM (inactive)	17.3
COC1=CC(=O)OC(/C=C(C)/C=C/C2=C(C)CCCC2(C)C)C1 (stereo not given)	> 100 µM (inactive)	> 100 µM (inactive)	> 100 µM (inactive)	> 100 µM (inactive)	> 100 µM (inactive)	> 100 µM (inactive)	> 100 µM (inactive)	> 100 µM (inactive)	> 100 µM (inactive)	> 100 µM (inactive)	> 100 µM (inactive)	> 100 µM (inactive)	> 100 µM (inactive)	> 100 µM (inactive)	> 100 µM (inactive)	> 100 µM (inactive)	> 100 µM (inactive)	
C[N+](C)(C)CC1CCC(C[N+](C)(C)C)C1=NO (stereo not given)	> 100 µM (inactive)	> 100 µM (inactive)	> 100 µM (inactive)	> 100 µM (inactive)		> 100 µM (inactive)	> 100 µM (inactive)	> 100 µM (inactive)		> 100 µM (inactive)	> 100 µM (inactive)	> 100 µM (inactive)	> 100 µM (inactive)	> 100 µM (inactive)	> 100 µM (inactive)	> 100 µM (inactive)	> 100 µM (inactive)	> 100
Cc1cc(NS(=O)(=O)c2ccc(Nc3c4ccccc4nc4c(C(=O)NCCN(C)C)ccc(Cl)c34)cc2)no1	3.66 µM (inactive)	2.43 µM (inactive)	1.28 µM (inactive)	3.3 µM (inactive)		2.99 µM (inactive)	5.25 µM (inactive)	0.28 µM (active)	1.36 µM (inactive)	4.09 µM (inactive)	2.15 µM (inactive)	3.8 µM (inactive)	4.41 µM (inactive)	2 µM (inactive)	2.67 µM (inactive)	1.92 µM (inactive)	3.23 µM (inactive)	5.14
